Experimental data from US9018173B2, “Materials and methods for suppressing inflammatory and neuropathic pain” (Indiana University Research and Technology Corp., priority 2010, dated 2015).
“Also recorded” adds a separate entry of the source. Residues, ends and D or L forms follow the SMILES beside them.

Legend:
spatial memory = test: Morris water maze test of spatial/reference memory; type: in vivo, mice; conditions: 10 mg/kg i.p., 1 h-7 d after administration
Method: The rotarod test for motor coordination was performed as described with slight modifications. Following i.p. injection of vehicle or peptides, mice were tested with three trials each of fast and slow acceleration. The Morris water maze test was used to test reference/spatial memory. Mice were trained prior to the i.p. injection of TAT-Scramble or TAT-CBD3 peptides for 4 consecutive days (4 trials/day). Performance was evaluated 3 days following injection. Morris water maze test of spatial/reference memory. The Morris water maze test was used to test spatial memory. The maze consisted of a plastic pool (100 cm in diameter and 60 cm in depth) filled with water to a depth of 26.5 cm, with a clear Plexiglas stand (10 cm in diameter and 26 cm in height [i.e., 0.5 cm below the water's surface]) used as the hidden goal platform. The mice were trained prior to the injection for 4 consecutive days (4 trials/day). For each daily block of four trials, the mice were placed in the pool facing the wall. Trials were initiated from each of the four possible start locations (north, east, south, west) in a randomized manner. A maximum of 60 sec was allowed for each mouse to find the hidden platform. […] Mice were excluded from the study if their average latency to locate the platform on day 4 of the trials was greater than 50 sec. […]

[1] = biological target: CaV2.2 current density in hippocampal neurons (Rattus norvegicus, UniProt Q02294); test: Whole-cell patch-clamp Ca2+ currents in hippocampal neurons; type: cell-based; conditions: co-expression with CRMP-2 in hippocampal neurons; +10 mV
[2] = tested on: cortical layer V pyramidal neurons; test: Cortical slice recordings of evoked EPSCs; type: cell-based, CD1 mice; conditions: 10 μM
[3] = tested on: CaV2.2 surface expression in CAD cells; test: CaV2.2 surface expression in CAD cells (immunocytochemistry, surface biotinylation); type: cell-based
Method: Catecholamine A Differentiated (CAD) cells. CAD cells were grown at 37° C. and in 5% CO2 (Sarstedt, Newton, N.C.) in Ham's F12/EMEM medium (GIBCO, Grand Island, N.Y.), supplemented with 8% fetal bovine serum (FBS; Sigma, St. Louis, Mo.) and 1% penicillin/streptomycin ([…], 10,000 U/ml penicillin G sodium and 10,000 μg/ml streptomycin sulfate). Cells were passaged every 6-7 days at a 1:25 dilution.
Transient transfection. Adherent cultures were transfected with cDNAs using Lipofectamine 2000 (Invitrogen) as described previously. About 2-3% transfection efficiencies in hippocampal neurons was achieved routinely, 35-40% in DRG, and 75-80% in CAD cells transfected with this method. Typically, cultured cells were transfected with equal amounts of different cDNA constructs and experiments performed two days later.
Cell Surface Biotinylation. Biotinylation was performed as described. […]
Immunocytochemistry. […] Images were acquired on a Nikon Ti swept-field confocal microscope using a 60×, 1.4 NA lens and standard FITC/Texas red fluorescence cubes with a cooled Cascade 512B digital camera (Photometrics, Tucson, Ariz.). […]

[4] = biological target: T1, CRMP-2-CaV2.2 interaction (Rattus norvegicus, UniProt Q02294); test: Immunoprecipitation of CRMP-2/CaV2.2 in the presence of peptides; type: binding; conditions: spinal cord lysates or rat brains; peptides 10 μM
T1 construct: that could be captured from rat brains; from tissue; host or cells: rat brain / spinal cord lysates (CaV2.2)
Method: Referring now to FIG. 18. […] Peptides (10 μM each) were added for 30 min prior to addition of the CRMP-2-His protein. Representative blot from 12 separate experiments is shown. (FIG. 18.B) In vitro binding of L1-GST and Ct-dis-GST fusion proteins to CRMP-2 in the presence of scramble or CBD3 peptides (10 μM). The purification of the L1 and Ct-dis regions of CaV2.2 has been described by us previously. CRMP-2 bound to L1 and Ct-dis was probed with a CRMP-2 antibody. Representative blot from 4 separate experiments are shown. Similar results were obtained in experiments with spinal cord lysates (FIGS. 18.B and 18D).
Immunoblotting. This was performed as described previously. Rat brain synaptosomes were pre-cleared by a 1-h incubation with 20 μl of a 50% slurry of protein A/G beads (Pierce). The cleared lysate was then incubated overnight with various primary antibodies or rabbit or mouse isotype-specific IgGs (Sigma) as controls. The antibody-captured complexes were recovered with fresh protein A-agarose (for rabbit polyclonal antibodies) or protein A/G-agarose (for mouse monoclonal antibodies) beads (20 μl of original bead slurry/sample) by incubation with lysate/antibody mixture at 4° C. for 2 h. The beads were then washed three times with lysis buffer. Prior to electrophoresis on SDS-polyacrylamide gels, protein samples were boiled in Laemmli sample buffer for 5 min. […]

T1 sequence (Q02294 whole entry): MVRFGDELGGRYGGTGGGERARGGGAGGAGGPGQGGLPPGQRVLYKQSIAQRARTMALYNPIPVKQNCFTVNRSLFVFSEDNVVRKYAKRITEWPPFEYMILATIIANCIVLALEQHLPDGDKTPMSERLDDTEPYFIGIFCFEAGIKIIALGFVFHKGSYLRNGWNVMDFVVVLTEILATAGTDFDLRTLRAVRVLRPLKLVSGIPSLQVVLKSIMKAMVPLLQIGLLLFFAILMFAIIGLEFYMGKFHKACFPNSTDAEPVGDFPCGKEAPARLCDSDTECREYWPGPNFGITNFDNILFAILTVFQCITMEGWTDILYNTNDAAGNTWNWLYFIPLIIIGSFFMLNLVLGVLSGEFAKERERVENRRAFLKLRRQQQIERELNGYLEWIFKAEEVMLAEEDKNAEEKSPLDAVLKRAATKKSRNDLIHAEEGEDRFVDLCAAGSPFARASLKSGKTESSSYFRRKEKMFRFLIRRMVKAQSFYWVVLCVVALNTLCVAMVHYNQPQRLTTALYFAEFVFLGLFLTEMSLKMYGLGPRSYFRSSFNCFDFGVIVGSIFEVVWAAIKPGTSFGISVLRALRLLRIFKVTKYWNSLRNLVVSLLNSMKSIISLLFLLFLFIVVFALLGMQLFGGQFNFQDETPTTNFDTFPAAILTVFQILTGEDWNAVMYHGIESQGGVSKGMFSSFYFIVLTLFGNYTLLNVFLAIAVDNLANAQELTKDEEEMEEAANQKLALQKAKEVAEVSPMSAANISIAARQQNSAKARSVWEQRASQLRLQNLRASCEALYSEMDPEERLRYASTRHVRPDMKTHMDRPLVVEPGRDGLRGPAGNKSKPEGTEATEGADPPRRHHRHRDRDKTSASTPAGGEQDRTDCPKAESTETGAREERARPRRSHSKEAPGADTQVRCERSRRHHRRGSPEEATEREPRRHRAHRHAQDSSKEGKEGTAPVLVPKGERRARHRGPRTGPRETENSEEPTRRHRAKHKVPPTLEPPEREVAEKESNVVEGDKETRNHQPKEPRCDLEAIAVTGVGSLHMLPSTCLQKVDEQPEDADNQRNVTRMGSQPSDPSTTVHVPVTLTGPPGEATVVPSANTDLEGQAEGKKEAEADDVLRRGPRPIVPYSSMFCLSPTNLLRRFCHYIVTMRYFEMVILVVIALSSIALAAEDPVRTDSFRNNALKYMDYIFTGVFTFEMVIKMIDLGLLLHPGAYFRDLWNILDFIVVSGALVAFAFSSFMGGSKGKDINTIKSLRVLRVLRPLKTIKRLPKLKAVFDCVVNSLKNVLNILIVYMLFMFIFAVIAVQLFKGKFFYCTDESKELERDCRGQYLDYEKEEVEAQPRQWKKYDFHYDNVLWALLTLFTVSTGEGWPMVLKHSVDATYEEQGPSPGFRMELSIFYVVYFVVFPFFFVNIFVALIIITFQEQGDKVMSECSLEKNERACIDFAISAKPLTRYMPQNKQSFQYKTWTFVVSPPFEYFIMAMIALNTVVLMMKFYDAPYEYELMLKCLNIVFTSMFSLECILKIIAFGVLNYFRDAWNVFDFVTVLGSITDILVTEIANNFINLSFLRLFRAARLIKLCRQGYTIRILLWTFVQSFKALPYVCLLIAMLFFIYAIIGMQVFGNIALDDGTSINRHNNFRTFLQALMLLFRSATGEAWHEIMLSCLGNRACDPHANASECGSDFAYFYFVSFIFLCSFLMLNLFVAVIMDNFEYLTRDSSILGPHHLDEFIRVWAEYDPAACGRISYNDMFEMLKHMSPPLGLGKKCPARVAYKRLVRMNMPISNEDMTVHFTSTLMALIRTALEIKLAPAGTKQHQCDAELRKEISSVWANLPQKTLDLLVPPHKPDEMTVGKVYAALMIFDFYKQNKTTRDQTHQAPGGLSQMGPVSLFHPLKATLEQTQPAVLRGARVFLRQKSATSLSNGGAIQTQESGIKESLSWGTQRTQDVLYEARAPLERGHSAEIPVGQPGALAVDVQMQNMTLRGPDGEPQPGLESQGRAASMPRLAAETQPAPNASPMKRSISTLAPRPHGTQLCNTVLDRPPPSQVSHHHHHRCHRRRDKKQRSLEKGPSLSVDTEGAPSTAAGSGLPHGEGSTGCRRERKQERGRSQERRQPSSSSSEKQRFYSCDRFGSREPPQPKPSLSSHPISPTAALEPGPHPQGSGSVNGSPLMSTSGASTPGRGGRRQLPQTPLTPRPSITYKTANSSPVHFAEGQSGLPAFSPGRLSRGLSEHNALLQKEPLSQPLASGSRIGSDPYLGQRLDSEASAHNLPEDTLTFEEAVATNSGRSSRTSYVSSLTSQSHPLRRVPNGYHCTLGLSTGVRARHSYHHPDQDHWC
T1 sequence (P54287 whole entry partner): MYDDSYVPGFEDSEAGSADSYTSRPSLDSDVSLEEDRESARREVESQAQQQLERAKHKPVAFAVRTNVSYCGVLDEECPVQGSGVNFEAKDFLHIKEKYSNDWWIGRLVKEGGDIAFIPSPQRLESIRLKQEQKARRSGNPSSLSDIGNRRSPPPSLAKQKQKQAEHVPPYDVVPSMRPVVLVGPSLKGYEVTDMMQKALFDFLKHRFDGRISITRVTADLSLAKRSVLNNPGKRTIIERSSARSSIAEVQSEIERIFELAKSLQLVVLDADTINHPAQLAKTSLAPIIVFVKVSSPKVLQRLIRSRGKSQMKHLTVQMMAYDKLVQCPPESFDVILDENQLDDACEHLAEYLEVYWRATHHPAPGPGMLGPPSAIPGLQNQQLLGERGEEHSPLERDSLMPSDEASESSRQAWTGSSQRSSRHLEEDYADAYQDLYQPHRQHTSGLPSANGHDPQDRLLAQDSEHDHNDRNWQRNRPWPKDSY
Sequence of CaV2.2 current density in hippocampal neurons (Q02294 whole entry): as the sequence (Q02294 whole entry) above
Sequence of CaV2.2 current density in hippocampal neurons (P54287 whole entry partner): as the sequence (P54287 whole entry partner) above
Sequence of CaV2.2 current density in hippocampal neurons (P54290 25-944 partner limits assumed): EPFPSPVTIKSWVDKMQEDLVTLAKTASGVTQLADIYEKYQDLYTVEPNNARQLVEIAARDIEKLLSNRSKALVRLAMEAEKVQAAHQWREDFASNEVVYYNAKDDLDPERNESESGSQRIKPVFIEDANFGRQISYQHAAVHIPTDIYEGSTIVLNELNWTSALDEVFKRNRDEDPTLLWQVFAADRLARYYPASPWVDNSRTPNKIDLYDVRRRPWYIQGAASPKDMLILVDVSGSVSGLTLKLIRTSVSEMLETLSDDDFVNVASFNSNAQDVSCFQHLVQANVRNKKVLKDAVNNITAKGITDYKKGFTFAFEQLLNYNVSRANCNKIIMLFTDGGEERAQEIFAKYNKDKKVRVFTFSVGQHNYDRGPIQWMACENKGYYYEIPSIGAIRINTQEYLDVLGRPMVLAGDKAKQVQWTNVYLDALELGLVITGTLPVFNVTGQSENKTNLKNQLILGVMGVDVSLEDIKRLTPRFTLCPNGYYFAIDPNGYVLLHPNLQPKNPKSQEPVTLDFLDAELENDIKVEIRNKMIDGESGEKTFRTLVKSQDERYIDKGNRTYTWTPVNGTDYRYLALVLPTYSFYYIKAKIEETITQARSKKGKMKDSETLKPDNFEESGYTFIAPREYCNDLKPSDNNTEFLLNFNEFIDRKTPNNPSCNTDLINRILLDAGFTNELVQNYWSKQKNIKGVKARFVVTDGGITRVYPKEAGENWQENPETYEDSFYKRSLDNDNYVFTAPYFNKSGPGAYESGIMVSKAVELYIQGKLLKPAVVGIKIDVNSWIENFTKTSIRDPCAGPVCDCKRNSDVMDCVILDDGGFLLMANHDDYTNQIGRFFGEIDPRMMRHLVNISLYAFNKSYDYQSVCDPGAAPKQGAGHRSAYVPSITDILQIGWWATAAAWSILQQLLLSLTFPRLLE
Sequence of CaV2.2 current density in hippocampal neurons (P54290 945-1091 partner limits assumed): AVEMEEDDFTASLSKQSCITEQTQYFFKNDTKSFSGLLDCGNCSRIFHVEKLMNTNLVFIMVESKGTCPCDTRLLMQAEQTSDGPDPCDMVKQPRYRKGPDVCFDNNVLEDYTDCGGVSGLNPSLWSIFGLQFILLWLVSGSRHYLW

Molecule	coordination or spatial memory (Morris water maze) (spatial memory)	CRMP-2-mediated increase in CaV2.2 current density [1]	paired-pulse ratio (PPR) [2]	CaV2.2 localisation on co-expression ([3]; co-expression of CaV2.2 with CBD3 in CAD cells)	surface expression of co-expressed CaV2.2 (surface biotinylation) ([3]; expressed in CAD cells)	CRMP-2-CaV2.2 interaction (immunoprecipitation) [4]
CC(C)C[C@H](NC(=O)CNC(=O)[C@H](CCCNC(=N)N)NC(=O)[C@@H]1CCCN1C(=O)[C@@H](NC(=O)CNC(=O)[C@H](CCCNC(=N)N)NC(=O)[C@H](CC(C)C)NC(=O)[C@H](CCC(=O)O)NC(=O)[C@H](C)NC(=O)[C@H](CC(C)C)NC(=O)[C@H](CCCNC(=N)N)NC(=O)[C@H](CO)NC(=O)[C@H](CCCNC(=N)N)NC(=O)[C@H](C)NC(=O)[C@H](CCCNC(=N)N)NC(=O)[C@H](CCCNC(=N)N)NC(=O)[C@H](CCCNC(=N)N)NC(=O)[C@H](CCC(N)=O)NC(=O)[C@H](CCCNC(=N)N)NC(=O)[C@H](CCCNC(=N)N)NC(=O)[C@H](CCCCN)NC(=O)[C@H](CCCCN)NC(=O)[C@H](CCCNC(=N)N)NC(=O)CNC(=O)[C@@H](N)Cc1ccc(O)cc1)C(C)C)C(=O)O [TAT-CBD3] (H-YGRKKRRQRRRARSRLAELRGVPRGL-OH; N-terminus and C-terminus assumed)	did not affect coordination or spatial memory	–	–	–	–	–
ARSRLAELRGVPRGL (CBD3)	–	eliminated	increased pair pulse ratios	almost complete retention of the channel in cytoplasmic aggregates	prevented surface expression	inhibited; also recorded: inhibits the binding between CRMP-2 and CaV2.2
